The source of these data is US20050026957A1, “Methods of treating nodulocystic acne” (Allergan, Inc., priority 2003, published 2005).

Data set [1] is described as follows: PK and PD interaction studies of oral tazarotene with oral contraceptives. The class given is in vivo, human. Particulars: tazarotene 1.1 mg or 6 mg daily with NE/EE or NGM/EE. As to the method: It is the objective of this study to determine if there are pharmacokinetic (PK) and pharmacodynamic (PD) interactions between tazarotene and commonly prescribed oral contraceptives (OCs) when coadministered together.
Three separate clinical studies are conducted to evaluate the PK and PD interactions of oral tazarotene and OCs in healthy volunteers. Two studies evaluate daily doses of norethindrone (NE)/ethinyl estradiol (EE) with daily doses of tazarotene 1.1 mg (N=27) and 6 mg (N=29). The third study assesses the daily doses of norgestimate (NGM)/EE with daily doses of tazarotene 6 mg (N=26). OCs are administered for three consecutive menstrual cycles. Daily doses of tazarotene are started during the 2nd cycle and continued through the end of the studies. PK parameters for EE, NE, and NGM (AUC0-24 and Cmax) are determined before tazarotene dosing and after tazarotene dosing on day 6 of the 2nd and 3rd cycles. Serum concentrations of luteinizing hormone (LH) and follicle-stimulating hormone (FSH)-markers of contraceptive efficacy are also evaluated before tazarotene dosing and after tazarotene dosing on days 2, 4, and 6 of the 2nd and 3rd cycles. Serum progesterone levels are assessed on days 18 and 20 of the 2nd and 3rd cycles. […]

For data set [2] the following is noted: topical administration of tazarotene; 'often well less than'; cited from earlier work.
Data set [3] can be described thus: Food effect on pharmacokinetics of tazarotenic acid after oral tazarotene (high-fat meal vs fast). The class given is in vivo, human. Particulars: 6.3 mg oral tazarotene, healthy subjects; for average ratio of Cmax values (test/reference): high-fat meal vs 8-10 hour fast. On the procedure:
For the purposes of this application, the bioavailability of a drug may be based on the human pharmokinetic parameters of maximum blood concentration (Cmax) and Area under the blood concentration-time curve (AUC).
The LC-MS/MS test for simultaneous detection of tazarotene and tazarotenic acid may be run as follows. One ml of plasma (EDTA-treated) is diluted with 1.0 ml of water. Diluted plasma is extracted using solid phase extraction (SPE) on a C18 cartridge. The eluate is evaporated, reconstituted in a water/methanol-based mobile phase, and injected onto a 4.6×50 mm, 3 μm pore size C-8 reverse phase high pressure liquid chromatography (HPLC) column (Agilent, Wilmington, Del.). Compounds are gradient-eluted at 1.2 mL/min and detected using an API 3000 triple quadrupole mass spectrometer with an Atmospheric Pressure Chemical Ionization (APCI) source (PE-Sciex, Concord, Ontario, Canada). Molecular reaction monitoring enhances the sensitivity and selectivity of this assay by collisionally dissociating the protonated molecules for the analyte and an internal standard thereby forming the product ions. The specific precursor-product ion pair monitored are m/z 352→324 for tazarotene, m/z 359→331 for the tazarotene internal standard, m/z 324→294 for tazarotenic acid, and m/z 331+298 for the tazarotenic acid internal standard. The lower limit of quantitation at assay range tested is 0.1 ng/mL, with a coefficient of variation and deviation from nominal concentration of <15%.

The conditions of data set [4]: oral, cited from earlier work; for impact of food on bioavailability: literature.
Another data set has as its system patients. Description: Two placebo-controlled 24-week safety studies of oral tazarotene plus dose-response evaluations. The class given is in vivo, human. As to conditions: 4.5 mg orally once daily; two safety trials; placebo 17%. On the procedure: Two multicenter, double-blind, randomized, placebo-controlled 24-week studies of identical design are conducted to evaluate the safety of oral tazarotene. In addition, 16- to 24-week dose-response evaluations are performed.
In the two safety trials, the incidence of adverse side effects with a 4.5 mg dose administered orally once daily is compared to the incidence of the same side effects with a placebo. […] The majority of these were mild in severity and typical of adverse effects associated with oral retinoids.

For data set [5], the system named is patients treated for acne. The data set is described as follows: Adverse event monitoring in studies of orally administered tazarotene for acne (Table 2). Particulars: combined data from Studies 1 and 2 (N = 223). The class given is in vivo, human. As to the method:
Studies are conducted on orally administered tazarotene for the treatment of acne. Adverse events (side effects) are monitored.

The test system of the next data set is sebum secretion. The data set is described as follows: Sebum output by Sebutape patches in the nodulocystic acne study. It counts as in vivo, human. Particulars: oral 0.75 to 6 mg once daily; up to 86 patients. As to the method: (§1) Sebum output is assessed every 4 weeks at selected centers using the Sebutape® patches, sold by Cuderm Corporation. Urinalysis, chemistry, and hematology values are monitored. Bone formation and resorption assessments (serum bone alkaline phosphatase and serum amino terminal telopeptides, respectively) at selected centers are monitored.
Sebum secretion output is assessed in a maximum of 86 patients (with successively fewer patients at each timepoint—e.g., 60 patients at week 24, 46 patients at week 36). Importantly, there is no consistent statistically significant differences in sebum production across treatment groups using the Sebutape® method of assessment.

The subject of data set [6] is patients having nodulocystic acne. Description: Two placebo-controlled dose-ranging safety studies of oral tazarotene in nodulocystic acne. Particulars: for cheilitis: treatment period; for Emotional lability: all cases mild. It counts as in vivo, human. As to the method: Two placebo-controlled dose-ranging studies are conducted to evaluate the safety of oral tazarotene in patients having nodulocystic acne. In the first study, patients receive orally administered tazarotene at daily doses of 0.4 mg to 2.8 mg in 96 (71+25) patients (12 weeks treatment plus 12 weeks post-treatment). In the second study, daily doses of 0.75 mg to 6 mg tazarotene are administered to 181 patients (24 weeks treatment plus 12 weeks post-treatment).

The test system of another data set is severe psoriasis. The data set is described as follows: Patient with severe psoriasis on Ortho-Novum treated with tazarotene. Particulars: 6 mg per day; after 30 days. It counts as in vivo, human. The source says: The patient presents symptoms of severe psoriasis. The symptoms include lesions approximately 4 to 10 centimeters across appearing as raised patches of wine red skin many of which are covered in silvery white scales. The lesions are mostly dry and rough, and quite often noticeably warm to the touch. The lesions are present on the elbows, knees, scalp, and groin area. The patient experiences intense burning and itching associated with the lesions.
The patient is currently taking Ortho-Novum® for contraception.
Tazarotene at a dose of 6 mg per day is prescribed.

For a further data set, the system named is severe nodulocystic acne. The data set is described as follows: Double-blind, randomized, placebo-controlled study of oral tazarotene in severe nodulocystic acne. The class given is in vivo, human.
Text: A multicenter, double-blind, randomized, placebo-controlled parallel-group study is undertaken to determine the efficacy of orally administered tazarotene in treating severe nodulocystic acne.
In addition, washout periods for other medications for this study are: 1 week for vitamin A supplements >5000 IU; 2 weeks for topical anti-acne medications (e.g., retinoids, azelaic acid, benzoyl peroxide); 2 weeks for topical or systemic antibiotic therapy that may alter the course of acne; and 6 months for systemic retinoids.
Patients are randomized to receive placebo or oral tazarotene (0.75, 1.5, 3, or 6 mg), in a 1:1:1:1:1 ratio once daily for 24 weeks. After this, the patients are followed without treatment for an additional 12 weeks. Patients discontinuing from the treatment period due to adverse effects or lack of efficacy are eligible for entry into the post-treatment phase.
In the study, overall acne severity is rated as: none (no inflammatory acne lesions); mild (few to several papules or pustules, no nodulocystic lesions); moderate (several to many papules or pustules, few to several nodulocystic lesions); and severe (numerous or extensive papules or pustules, many, for example, at least about 5 or at least about 10, nodulocystic lesions). […]
as §1
Bone mineral density of spine and proximal femur at selected centers is monitored. Ligament calcification or osteophyte formation (lateral X-ray of the cervical and thoracic spine, and ankle calcaneous) is monitored. Epiphyseal growth plate closure (internal oblique X-ray of the ankle in patients less than or equal to 21 years old) is monitored.

A further data set relates to sebaceous glands. Particulars: severe acne; published reports (Geiger); cited from earlier work.
The conditions of data set [7]: in vivo; cited from earlier work.

Consider `CC1(C)CCSc2ccc(C#Cc3ccc(C(=O)O)cn3)cc21` [tazarotenic acid], for which the “90% confidence intervals of AUC0-24 and Cmax for EE, NE, and NGM” value in data set [1] was “within the 80-125% boundary”. In addition, in [2], the maximum blood concentration entry is “less than 30 ng/ml”. Moreover, the “effect of high-fat meal on bioavailability or pharmacokinetics” value in data set [3] (single and multiple dose) is listed as “does not substantially affect”. Further, the “average ratio of Cmax values (test/reference)” value is reported as 1.00 in [3] (Day 0) and 0.829 in data set [3] (Day 9).
Turning to `COc1cc(C)c(/C=C/C(C)=C/C=C/C(C)=C/C(=O)O)c(C)c1C` [Acitretin, acitretin], the “impact of food on bioavailability” value in [4] was “bioavailability is increased in the presence of food”.
For the compound `CCOC(=O)c1ccc(C#Cc2ccc3c(c2)C(C)(C)CCS3)nc1` [tazarotene], the incidence of cheilitis in the data set on patients amounted to 66%. In data set [5], the Conjunctivitis is listed as 0 (0.0) NUMBER OF (%) OF PATIENTS. In data set [5], the Irritation of eyes is recorded as 0 (0.0) NUMBER OF (%) OF PATIENTS. Moreover, the “effect on sebum secretion (Sebutape method)” value in the data set on sebum secretion is listed as “does not substantially reduce sebum secretion relative to placebo”. In addition, the joint disorder in [6] (2.8 mg, n=11, placebo 0%) came to 27%; in data set [6] (3 mg, n=37), 14%; in data set [6] (6 mg, n=36) it was 19%. In addition, the arthralgia is given as 9% in data set [6] (2.8 mg, n=11, placebo 6%); 8% in [6] (3 mg, n=37); 28% in [6] (6 mg, n=36). The myalgia in data set [6] (2.8 mg, n=11, placebo 9%) was determined as 0%; in data set [6] (3 mg, n=37), 16%; in [6] (6 mg, n=36), 25%. Besides, the asthenia in [6] (2.8 mg, n=11, placebo 13%) was determined as 0%; in data set [6] (3 mg, n=37) it was 19%; in data set [6] (6 mg, n=36) it was 19%. The dry skin was 18% in data set [6] (2.8 mg, n=11, placebo 19%); 35% in [6] (3 mg, n=37); 50% in data set [6] (6 mg, n=36). Further, the headache worked out at 9% in data set [6] (2.8 mg, n=11, placebo 28%); 19% in [6] (3 mg, n=37); 36% in data set [6] (6 mg, n=36). In addition, the cheilitis in data set [6] (2.8 mg, n=11, placebo 31%) turned out to be 64%; in data set [6] (3 mg, n=37), 78%; in [6] (6 mg, n=36) it was 94%. In addition, the Emotional lability in data set [6] (3 mg group, placebo 2 (4%)) is 1 (3%) patient (%); in data set [6] (6 mg group), 5 (14%) patient (%). Besides, the Depression entry in [6] (6 mg group) is reported as “none”. Also, the “changes in urinalysis, chemistry, or hematology measures (incl. liver function tests, triglycerides, total cholesterol, HDL cholesterol)” value in data set [6] (0.4 to 6 mg daily) is recorded as “no consistent dose-related clinically significant changes”. Besides, the “patients withdrawing from either study due to adverse events” value in data set [6] (7/277, all groups of both studies incl. placebo) worked out at 2.5%. The “psoriasis symptoms and lesions” value in the data set on severe psoriasis was “symptoms of itching and burning are relieved”. Further, the “incidence of treatment success (≧50% global improvement) vs placebo” value in the data set on severe nodulocystic acne (3 mg and 6 mg, week 24 and throughout post-treatment phase, p≦0.05) is recorded as “significantly higher”. Moreover, the “reduction of overall acne severity” value with severe nodulocystic acne (6 mg, week 16 until end of post-treatment phase, p≦0.01) is recorded as “significantly more than placebo”. Besides, the “abnormalities in liver function test results or elevated triglycerides, total cholesterol, or HDL cholesterol” value in the data set with severe nodulocystic acne (oral 0.75 to 6 mg once daily) is listed as “not generally associated”.
Regarding `C=C(c1ccc(C(=O)O)cc1)c1cc2c(cc1C)C(C)(C)CCC2(C)C` [bexarotene], the “impact of food on bioavailability” value in data set [4] is “bioavailability is increased in the presence of food”.
In the case of `CC1=C(/C=C/C(C)=C/C=C/C(C)=C\C(=O)O)C(C)(C)CCC1` [Isotretinoin, isotretinoin], in the data set on sebaceous glands, the “decrease in sebum secretion rate” value was “about 90%”. Moreover, the “effect on coadministered contraceptive tablets” value in data set [7] was “decreases blood concentrations of both ethinyl estradiol and norethindrone”. In addition, in data set [4], the “total dose needed to reach the same peak blood concentration in the fasted state vs following a high fat meal” value is reported as “more than doubled” and the “impact of food on bioavailability” value was “bioavailability is increased in the presence of food”.
